Source: patent US20260216147A1, “USE OF A THIENOPYRIDONE DERIVATIVE IN THE TREATMENT OF DIABETIC NEPHROPATHY” (POXEL, priority 2020, published 2026)

Tests used:
[1] = background statement; cited from earlier work
[2] = test system: preclinical model of diabetic nephropathy; conditions: K. O. Cameron et al., J. Med. Chem. 2016; cited from earlier work
obese ZSF1 rats [3] = experiment: Albuminuria in 15 h overnight urine of obese ZSF1 rats; type: in vivo, rat; conditions: 150 mg/kg oral gavage twice a day
Description: (§1) ZSF1 rat is a Leptin-resistant, obese, hypertensive Zucker diabetic fatty/Spontaneously hypertensive heart failure F1 hybrid (ZSF1) rat. The obese ZSF1 rat is described as a relevant pre-clinical model for the study of renal function decline to end stage renal disease in the setting of type 2 diabetes (Dower K et al., PLOS ONE 2017; 12 (7): e0181861).
(§2) Obese ZSF1 rats and lean ZSF1 (Lean) were 12-week-old at the time of treatment initiation.
(§3) The following groups were constituted: • Lean rats (untreated; n=5-8) • ZSF1 rats (untreated; n=9-12) • ZSF1 treated with PXL770 (n=8-12).
(§4) The compound of Example 2, also known as PXL770 was administered by oral gavage at the dose of 150 mg/kg twice a day for 8 days (13 weeks of age) or 90 days (24-week old of age).
(§5) The PXL770 suspension was prepared at the concentrations used in the study (150 mg/kg) in the vehicle, i.e. carboxymethylcellulose 0.5%/Tween 80 (98/2).
(§6) Randomly selected animals of each group (n=8-12) were placed in separate metabolic cages in order to collect 15 h over-night urine samples at D8 and D90. Albuminuria was determined as indicator of renal dysfunction using IDEXX Vetlab analyzer. Glycosuria was determined using IDEXX Vetlab analyzer. […]

obese ZSF1 rats [4] = experiment: Glycosuria in 15 h overnight urine of obese ZSF1 rats; type: in vivo, rat; conditions: 150 mg/kg oral gavage twice a day
Description: as §1, §2, §3, §4, §5, §6

obese ZSF1 rats [5] = experiment: Urine volume (15 h overnight, metabolic cages) of obese ZSF1 rats; type: in vivo, rat; conditions: 150 mg/kg oral gavage twice a day, 90 days, vs untreated ZSF1 rats
Description: as §1, §2, §3, §4, §5, §6

obese ZSF1 rats [6] = experiment: Glomerular filtration rate (FITC-sinistrin, transcutaneous) in obese ZSF1 rats; type: in vivo, rat; conditions: 150 mg/kg oral gavage twice a day, 90 days (24 weeks of age), vs untreated ZSF1 rats
Description: as §1, §2, §3, §4, §5
At D8 and D90, glomerular filtration rate was determined with the fluorescent glomerular filtration rate tracer fluorescein isothiocyanate (FITC)-sinistrin using the transcutaneous glomerular filtration rate system (NIC-Kidney; Mannheim Pharma and Diagnostics GmbH, Mannheim, Germany) (Schock-Kusch D. et al., PLOS One 2013; 8, e71519). […]

[7] = background statement; cited from earlier work; remark: listed apart in the source

Question: For `N#Cc1c(O)c2c(-c3ccc(-c4ccccc4O)cc3)csc2[nH]c1=O` [Compound A-799662], which Oral bioavailability [1] is on record?
Answer: poor oral bioavailability

Question: Which “Efficacy in a preclinical model of diabetic nephropathy” value [2] does the source give for `O=C(O)c1c[nH]c2cc(Cl)c(-c3ccc(C4(O)CCC4)cc3)cc12` [PF-06409577] here?
Answer: showed efficacy

Question: For `O=c1[nH]c2sc(Cl)c(-c3ccc4c(c3O)CCCC4)c2c([O-])c1-c1ccccc1.[K+]` [PXL770, monohydrate potassium salt of 2-chloro-4-hydroxy-3-(5-hydroxytetralin-6-yl)-5-phenyl-7H-thieno[2,3-b]pyridin-6-one], which “Albuminuria (urine albumin level)” value (obese ZSF1 rats [3]; 8 days (13 weeks of age), vs age-matched untreated ZSF1 rats) is on record?
Answer: a decrease in albuminuria was observed

Question: And the “Albuminuria (urine albumin level)” value (obese ZSF1 rats [3]; 90 days (24 weeks of age), vs untreated ZSF1 rats)?
Answer: significantly reduced

Question: What about the “Glycosuria (urine glucose level)” value (obese ZSF1 rats [4]; 8 days) of the same molecule?
Answer: reduced glycosuria

Question: What about the “Glycosuria (urine glucose level)” value (obese ZSF1 rats [4]; 90 days) of the same molecule?
Answer: reduced glycosuria

Question: And the Urine volume (obese ZSF1 rats [5])?
Answer: decreased significantly urine volume

Question: What about the “Glomerular filtration rate (GFR)” value (obese ZSF1 rats [6]) of the same molecule?
Answer: significantly prevented the decrease in GFR

Question: For MK-8722, which Cardiac side effects [7] is on record?
Answer: known to trigger cardiac side effects
